# Calls of active or inactive are those of the source.
# Columns and labels:
# Jurkat = assay: SAR Analysis of small molecule inhibitors of T-cell specific antigen receptor-induced NF-kB activation in a Jurkat cell line using a luminescence assay - Set 2. [Related pubchem assays (depositor defined):AID435003, AID435012, AID465]; assay type: functional, cell-based; conditions: Homo sapiens
# HEK293 [1] = assay: HEK293T cell viability loss, resazurin readout – resazurin fluorescence, cytotoxicity control for NF-kB activator project, SAR follow-up (AID 493251); assay type: functional, cell-based; conditions: Homo sapiens
# HEK293 [2] = assay: SAR Analysis of small molecule inhibitors of T-cell specific antigen receptor-induced NF-kB activation in a HEK-293T cell line using a luminescence assay - Set 2. [Related pubchem assays (depositor defined):AID435003, AID435012, AID489026]; assay type: functional, cell-based; conditions: Homo sapiens
# BJ [3] = assay: BJ-TERT fibroblast viability loss – cell-based, RAS-independent, luminescence, dose response (AID 1933); assay type: functional; conditions: Homo sapiens
# BJ [4] = assay: cells; assay type: functional, cell-based; conditions: Homo sapiens
# [5] = DRD fibroblast viability loss – cell-based, non-viral oncogenic, luminescence, dose response (AID 1934); assay type: functional; conditions: Homo sapiens
# Protein RecA = biological target: T1, Protein RecA (Mycobacterium tuberculosis, UniProt P9WHJ3); assay: Fluorescence Cell-Free Homogeneous Dose Retest to Identify Inhibitors of RecA-Intein Splicing Activity. [Related pubchem assays (depositor defined):AID2097, AID2223, AID489010, AID492950]; assay type: functional
# T1 sequence (P9WHJ3 whole entry): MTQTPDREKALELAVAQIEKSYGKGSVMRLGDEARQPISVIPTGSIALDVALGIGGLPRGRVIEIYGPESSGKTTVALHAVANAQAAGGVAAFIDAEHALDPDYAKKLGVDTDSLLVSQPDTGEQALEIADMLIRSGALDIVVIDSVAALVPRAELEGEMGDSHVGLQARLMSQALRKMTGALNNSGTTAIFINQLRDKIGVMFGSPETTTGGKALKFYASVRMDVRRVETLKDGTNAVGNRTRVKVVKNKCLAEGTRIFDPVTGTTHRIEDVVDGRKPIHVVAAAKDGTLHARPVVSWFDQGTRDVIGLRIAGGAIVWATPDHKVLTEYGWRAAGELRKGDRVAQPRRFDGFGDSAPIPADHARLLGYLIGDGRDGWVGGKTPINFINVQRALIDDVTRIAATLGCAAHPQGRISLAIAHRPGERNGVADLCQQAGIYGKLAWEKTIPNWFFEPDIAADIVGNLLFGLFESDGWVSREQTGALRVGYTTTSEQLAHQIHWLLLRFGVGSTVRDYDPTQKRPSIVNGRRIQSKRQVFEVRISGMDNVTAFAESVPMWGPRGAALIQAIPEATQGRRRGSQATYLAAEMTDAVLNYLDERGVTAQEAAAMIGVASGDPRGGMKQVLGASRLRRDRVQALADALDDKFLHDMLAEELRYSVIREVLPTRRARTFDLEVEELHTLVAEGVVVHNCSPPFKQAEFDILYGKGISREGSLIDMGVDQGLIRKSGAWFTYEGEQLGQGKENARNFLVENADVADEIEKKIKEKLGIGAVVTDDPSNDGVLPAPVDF
# BJ [6] = assay: BJ-TERT-LT-ST fibroblast viability loss – cell-based, RAS-independent, luminescence, dose response (AID 1935); assay type: functional; conditions: Homo sapiens;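 note: BJ fibroblasts immortalized with TERT plus LT and ST oncogenes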
# [7] = biological target: T2, Heat shock factor protein 1 (Mus musculus, UniProt P38532); assay: decrease of HSF1-responsive luciferase luminescence – cell-based, NIH3T3, dose retest, confirmation (AID 2382); assay type: functional;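 note: NIH3T3 fibroblasts with HSF1-driven luciferase reporter stressed by proteasome inhibitor MG132; luminescence from HSF1-driven luciferase expression after 8 hours of MG132 stress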
# T2 sequence (P38532 whole entry): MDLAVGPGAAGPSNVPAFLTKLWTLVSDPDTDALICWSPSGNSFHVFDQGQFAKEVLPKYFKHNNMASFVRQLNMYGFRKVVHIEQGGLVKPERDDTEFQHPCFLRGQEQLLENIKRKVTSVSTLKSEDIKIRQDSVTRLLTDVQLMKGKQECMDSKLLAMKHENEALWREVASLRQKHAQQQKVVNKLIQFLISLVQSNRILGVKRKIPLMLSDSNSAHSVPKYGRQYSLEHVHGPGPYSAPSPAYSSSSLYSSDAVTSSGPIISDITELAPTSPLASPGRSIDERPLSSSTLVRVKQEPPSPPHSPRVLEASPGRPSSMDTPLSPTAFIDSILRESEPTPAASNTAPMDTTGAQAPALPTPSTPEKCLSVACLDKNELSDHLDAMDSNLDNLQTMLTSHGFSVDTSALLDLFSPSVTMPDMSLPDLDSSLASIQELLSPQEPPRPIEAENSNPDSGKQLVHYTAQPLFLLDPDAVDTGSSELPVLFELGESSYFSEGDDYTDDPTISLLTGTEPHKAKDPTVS
# [8] = Luminescence Cell-Based Dose Response HTS to Identify Inhibitors of 5'UTR Stem-Loop Driven Prion Protein mRNA Translation in H4 Neuroglioblastoma Cells. [Related pubchem assays: 1827 (Project Summary), 1813 (Primary HTS)]; assay type: functional
# BJ [9] = assay: growth inhibition of engineered Ras-driven BJ cells – cell-based, alamar blue fluorescence, cherrypicked samples, dose response (AID 2631); assay type: functional; conditions: Homo sapiens;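 note: confirmatory dose-response assay in RAS-dependent BJ fibroblasts engineered with TERT, LT and ST, with cytotoxicity read by fluorescence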
# [10] = alpha-synuclein stem-loop luciferase translation blockers – H4 neuroglioma cells, luminescence, confirmation (AID 1988); assay type: functional, cell-based
# [11] = biological target: T3, Replicative DNA helicase DnaB (Mycobacterium tuberculosis, UniProt P9WMR3); assay: DnaB intein splicing inhibitors, dose response, biochemical, cell-free fluorescence (AID 449749); assay type: functional
# T3 sequence (P9WMR3 whole entry): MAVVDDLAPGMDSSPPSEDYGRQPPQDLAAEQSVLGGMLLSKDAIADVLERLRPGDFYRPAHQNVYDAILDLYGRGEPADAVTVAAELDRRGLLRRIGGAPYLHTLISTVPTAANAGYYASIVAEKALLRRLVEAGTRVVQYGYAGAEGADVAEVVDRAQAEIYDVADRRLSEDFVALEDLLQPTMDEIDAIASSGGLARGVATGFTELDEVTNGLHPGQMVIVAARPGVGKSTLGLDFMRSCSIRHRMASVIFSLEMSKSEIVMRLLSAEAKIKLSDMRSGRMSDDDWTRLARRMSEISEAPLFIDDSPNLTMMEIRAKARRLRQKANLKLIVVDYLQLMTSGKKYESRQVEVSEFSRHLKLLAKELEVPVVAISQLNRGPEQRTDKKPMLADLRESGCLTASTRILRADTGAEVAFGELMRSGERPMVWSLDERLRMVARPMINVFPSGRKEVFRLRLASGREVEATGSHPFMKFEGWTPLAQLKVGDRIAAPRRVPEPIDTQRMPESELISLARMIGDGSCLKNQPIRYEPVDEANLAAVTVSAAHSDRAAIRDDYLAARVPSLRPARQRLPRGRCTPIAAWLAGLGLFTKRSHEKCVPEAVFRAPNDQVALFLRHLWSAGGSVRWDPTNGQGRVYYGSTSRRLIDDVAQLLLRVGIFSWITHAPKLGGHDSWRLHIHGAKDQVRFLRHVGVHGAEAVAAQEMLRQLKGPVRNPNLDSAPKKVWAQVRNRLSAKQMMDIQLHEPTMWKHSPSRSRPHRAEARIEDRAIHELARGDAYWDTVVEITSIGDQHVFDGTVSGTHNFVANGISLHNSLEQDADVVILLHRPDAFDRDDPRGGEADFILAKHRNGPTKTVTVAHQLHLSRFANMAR
# [12] = luciferase reporter signal suppression in cells – H4 neuroglioma cells, luminescence, dose response (AID 1990); assay type: functional, cell-based
# MDCK [13] = assay: MDCK cell cytotoxicity, dose response, cytotoxicity control (AID 540296); assay type: functional; conditions: Canis lupus familiaris
# Nonstructural protein 1 = Nonstructural protein 1 (Influenza A virus, UniProt Q194T2); assay type: functional, Influenza A virus (A/California/07/2009(H1N1))
# Chain of Nonstructural protein 1 (Q194T2 whole entry): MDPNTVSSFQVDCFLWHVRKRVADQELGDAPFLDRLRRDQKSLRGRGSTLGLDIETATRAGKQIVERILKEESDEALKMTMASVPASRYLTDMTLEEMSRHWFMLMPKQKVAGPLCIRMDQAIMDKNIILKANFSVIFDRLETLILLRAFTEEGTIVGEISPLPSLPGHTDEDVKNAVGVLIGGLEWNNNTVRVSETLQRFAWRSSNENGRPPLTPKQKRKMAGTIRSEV
# MDCK [14] = assay: antiviral activity against H1N1 influenza, dose response, cell-based, strain KY136 (AID 540257); assay type: functional; conditions: Canis lupus familiaris
# Vero = assay: Vero E6 cell cytotoxicity, dose response, cytotoxicity control (AID 540298); assay type: functional; conditions: Chlorocebus sabaeus
# [15] = biological target: T4, Small ubiquitin-related modifier 1 (Homo sapiens, UniProt P63165); assay: SUMO1 protein interaction blockers, potency – biochemical, fluorescence polarization, uHTS hits, dose response (AID 624382); assay type: functional; conditions: read-out: IC50_Mean
# T4 sequence (P63165 whole entry): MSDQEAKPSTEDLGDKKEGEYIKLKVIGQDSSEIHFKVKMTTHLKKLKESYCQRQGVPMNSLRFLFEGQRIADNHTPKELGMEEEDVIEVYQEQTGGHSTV
# [16] = biological target: T5, Beta-adrenergic receptor kinase 1 (Homo sapiens, UniProt P25098); assay: aptamer displacement from bead-bound GRK2 – biochemical, cherry pick 1, bead flow cytometry, dose response (AID 504500)
# T5 sequence (P25098 whole entry): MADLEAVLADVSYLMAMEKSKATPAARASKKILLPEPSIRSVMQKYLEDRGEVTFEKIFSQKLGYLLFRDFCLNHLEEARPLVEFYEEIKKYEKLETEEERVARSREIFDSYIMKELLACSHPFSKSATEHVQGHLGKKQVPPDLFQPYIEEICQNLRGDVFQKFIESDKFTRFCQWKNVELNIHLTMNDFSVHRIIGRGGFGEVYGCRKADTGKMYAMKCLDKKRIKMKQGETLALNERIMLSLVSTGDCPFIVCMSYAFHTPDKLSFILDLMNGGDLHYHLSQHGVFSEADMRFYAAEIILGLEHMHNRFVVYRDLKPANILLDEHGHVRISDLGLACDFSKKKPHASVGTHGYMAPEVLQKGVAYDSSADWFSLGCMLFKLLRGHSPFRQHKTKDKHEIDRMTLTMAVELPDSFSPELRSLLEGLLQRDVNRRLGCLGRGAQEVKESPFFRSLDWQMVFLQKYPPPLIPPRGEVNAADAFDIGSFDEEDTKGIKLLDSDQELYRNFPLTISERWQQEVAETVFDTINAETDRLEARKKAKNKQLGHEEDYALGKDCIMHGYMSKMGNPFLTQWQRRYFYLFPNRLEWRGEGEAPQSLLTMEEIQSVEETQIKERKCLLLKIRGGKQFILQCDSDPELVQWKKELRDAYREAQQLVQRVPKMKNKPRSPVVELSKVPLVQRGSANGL
# [17] = biological target: T5, Beta-adrenergic receptor kinase 1; assay: blockers of aptamer binding to GRK2 – biochemical, flow cytometry beads, FAM-aptamer, powder set 1, dose response (AID 588720)
# [18] = biological target: T4, Small ubiquitin-related modifier 1; assay: SUMO1 protein-protein binding blockers, potency – biochemical, FRET, dose response (AID 624383); assay type: functional; conditions: read-out: IC50_Mean
compound,measurement,setting,value
COc1ccccc1C(NC(C)=O)c1ccc2cccnc2c1O (centres undefined),IC50,Jurkat,7.09 µM (active)
same,IC50,HEK293 [1],7.73 µM (active)
same,IC50,HEK293 [2],7.96 µM (active)
COc1cc(C2CC(c3cccs3)=NN2C(=O)CCl)ccc1OC(F)F (centres undefined),EC50,BJ [3],0.625 µM (active)
same,EC50,BJ [4],2.56 µM (active)
same,EC50,[5],1.95 µM (active)
same,EC50,Protein RecA,1.13 µM (active)
same,EC50,BJ [6],4.47 µM (inconclusive)
same,EC50,[7],3.04 µM (active)
same,EC50,[8],11 µM (active)
same,EC50,BJ [9],0.608 µM (active)
same,EC50,[10],8.46 µM (active)
same,AC50,[11],1.51 µM (active)
same,EC50,[12],> 120 µM (not active)
COc1cccc(/C=C2\SC(=S)N(CCCC(=O)N3CCCC3)C2=O)c1,CC50,MDCK [13],> 40 µM (active)
same,IC50,Nonstructural protein 1,66.8 µM (active)
same,EC50,Protein RecA,> 380 µM (inactive)
same,IC50,MDCK [14],32.9 µM (active)
same,CC50,Vero,12.8 µM (active)
same,AC50,[11],71.1 µM (active)
CC(CS(=O)(=O)c1ccc2c(c1)NC(=O)CS2)C(=O)NCc1ccccc1Cl (centres undefined),IC50,[15],> 66.6 µM (inactive)
same,EC50,[16],7.53 µM (active)
same,EC50,[17],0.638 µM (active)
same,IC50,[18],4.08 µM (active)
